From article PMC5321741, “Arylmethylamino steroids as antiparasitic agents” (Nature Communications, 2017)

Assays:
[1] = system: Candida albicans JMRC:STI:25000; assay: agar diffusion inhibition zone test; type: cell-based; conditions: 1o, 2o 1,000 µg/ml in DMSO, amphotericin B 10 µg/ml, solvent DMSO 0, read-out: inhibition zone diameter, Candida albicans (H8)
Procedure: (§1) The following organisms were tested at the Hans Knöll Institute in Jena, for their susceptibility to the compounds 1o and 2o: Bacillus subtilis JMRC:STI:10880, Staphylococcus aureus JMRC:ST:10760, Escherichia coli JMRC:ST:33699, Pseudomonas aeruginosa JMRC:ST:33772, Pseudomonas aeruginosa JMRC:ST:337721, Staphylococcus aureus JMRC:ST:33793 (multi-resistant), Enterococcus faecalis JMRC:ST:33700 (Vancomycin-resistant), Mycobacterium vaccae JMRC:STI:10670, Sporobolomyces salmonicolor (Basidiomycetes yeast) JMRC:ST:35974, Candida albicans (Ascomycetes yeast) JMRC:STI:25000, Penicillium notatum JMRC:STI:50164.
(§2) The bacteria were propagated in Mueller Hinton Broth (Oxoid)[49]. Yeast was propagated in YPD (yeast extract peptone dextrose): 1% yeast extract, 10 g; 2% peptone, 20 g; 2% agar, 20 g; 2% dextrose (glucose), 20 g; Sigma-Y1375. All bacteria and yeast suspensions were freshly made. The cultures were incubated at 37 °C for 16 h. Afterwards, the bacteria concentration from each culture was determined, and 34 ml of nutrient agar was loaded with 10^7 cells. These cultures were stored at 6-8 °C and could be used for seven days for the preparation of test plates. 34 ml of nutrient agar was liquefied and inoculated with the calculated amount of inoculum bacteria suspension at 48–50 °C, a temperature suitable for vegetative forms of bacteria. The inoculated nutrient media (34 ml each) were immediately poured into the prepared test plates (3 mm layer). With a punching device, 12 holes per test plate were punched out. For inhibiting bacterial growth, ciprofloxacin was used as a reference substance. The test substances were dissolved in distilled water, and 5 μg ml^−1 and 50 μl was added to each bacterial culture. For inhibition of fungal growth, amphotericin B served as the reference substance. The test substances were diluted to 10 μg ml^−1 in DMSO/methanol; 50 μl was added to each culture.
(§3) Configuring the test plate; volumes/punched hole: 50 μl; test solutions/test plate: 1 × 50 μl reference substance. Test plates were cultivated for 18 h at 37 °C. Analysis: Reading the inhibition zones (IZ): As IZ, the zone in which no growth can be determined with the naked eye is measured; the tiniest colonies on the edge of the inhibition zone were therefore not taken into consideration. The diameter (φ) of the IZ is measured in mm. The analysis of IZ φ is carried out internationally with the help of statistic procedures, especially regression analysis. With each test approach, the reference substance was brought along as a control; if there were deviations from allowed IZ φ, the test was repeated.
(§4) The inhibition of bacterial growth was determined using bacterial cultures grown in Müller-Hinton Bouillon, which was configured at barely visible opacity with the McFarland Standard Nr. 0.5, which indicates a bacterial density of 10^8 ml^−1. This bacterial suspension was diluted with Müller-Hinton Bouillon using 2-fold dilution series in the agar diffusion test.
(§5) Analysis: The growth in the inhibition zones around the holes containing active substances is thereby compared with the growth in the growth control (no active substance). Bacterial growth was determined according to four measurements: p=presence of colonies in the inhibition zone, P=presence of many colonies in the inhibition zone, A=indication of inhibition, F=facilitation.

[2] = system: Penicillium notatum JMRC:STI:50164; assay: agar diffusion inhibition zone test; type: cell-based; conditions: 1o, 2o 1,000 µg/ml in DMSO; amphotericin B 10 µg/ml; solvent DMSO 13p
Procedure: as §1, §2, §3, §4, §5

[3] = system: Sporobolomyces salmonicolor JMRC:ST:35974; assay: agar diffusion inhibition zone test; type: cell-based; conditions: 1o, 2o 1,000 µg/ml in DMSO; amphotericin B 10 µg/ml; solvent DMSO 20p
Procedure: as §1, §2, §3, §4, §5

[4] = system: Alternaria alternata JMRC:SF:09317; assay: spore inhibition test; type: cell-based; conditions: 48 h; start concentration 1 mg/ml (1o, 2o), 100 µg/ml (Amphotericin B)
Procedure: (§6) The following test organisms were used for their susceptibility to compounds 1o and 2o: Alternaria alternata JMRC:SF:09317, Arthroderma benhamiae JMRC:ST:35888, Aspergillus fumigatus JMRC:Afum:00073=ATCC 46645, Aspergillus terreus JMRC:SF:06307, Candida albicans JMRC:ST:35864, Lichtheimia corymbifera JMRC:SF:09682, Penicillium chrysogenum JMRC:SF:10137, Rhizopus arrhizus (syn. R. oryzae) JMRC:SF:05857=ATCC 56536, CBS 112.07.
(§7) Fungi were grown on 3% malt extract solidified medium for 1 to 2 weeks at room temperature. Then the plates were washed with 7 ml sterile distilled water, and the spore suspension was filtered through 4 layers of sterile Miracloth (Kalbiochem, USA) to remove the hyphae. The concentration of the spore suspension was set to 2 × 10^4 conidia ml^−1 for the in vitro assays.
(§8) The spore inhibition assay took place in 96-well microplates (flat base). 50 μl of the prepared spore suspension was seeded and then mixed with 50 μl of the respective inhibitor substance. Tests were started with end concentrations of 1 mg ml^−1 and were then reduced in a minimum of 10 halving steps. Thus a 2 mg ml^−1 stock solution diluted in half ten times with solvent (distilled water, 2% DMSO in distilled water, or 2% DMF in distilled water) and each 50 μl was transferred to 50 μl spore suspension. For each test substance, 12 holes on the microtiter plate were filled. After 24 h incubation (25 °C), the germination of the spores was macroscopically and microscopically examined directly in the microtiter plate via measurement of the optical density and light microscopy using an inverse stereomicroscope with subsequent photodocumentation, respectively. If necessary, the plates were further incubated for another 24 or 48 h, depending on the extent of fungal germination.

[5] = system: Arthroderma benhamiae JMRC:ST:35888; assay: spore inhibition test; type: cell-based; conditions: 72 h; start concentration 1 mg/ml (1o, 2o), 100 µg/ml (Amphotericin B)
Procedure: as §6, §7, §8

[6] = system: Aspergillus fumigatus JMRC:Afum:00073; assay: spore inhibition test; type: cell-based; conditions: 48 h; start concentration 1 mg/ml (1o, 2o), 100 µg/ml (Amphotericin B)
Procedure: as §6, §7, §8

[7] = system: Aspergillus terreus JMRC:SF:06307; assay: spore inhibition test; type: cell-based; conditions: 48 h; start concentration 1 mg/ml (1o, 2o), 100 µg/ml (Amphotericin B)
Procedure: as §6, §7, §8

[8] = system: Candida albicans JMRC:ST:35864; assay: spore inhibition test; type: cell-based; conditions: 48 h; start concentration 1 mg/ml (1o, 2o), 100 µg/ml (Amphotericin B)
Procedure: as §6, §7, §8

[9] = system: Lichtheimia corymbifera JMRC:SF:09682; assay: spore inhibition test; type: cell-based; conditions: 48 h; start concentration 1 mg/ml (1o, 2o), 100 µg/ml (Amphotericin B)
Procedure: as §6, §7, §8

[10] = system: Penicillium chrysogenum JMRC:SF:10137; assay: spore inhibition test; type: cell-based; conditions: 48 h; start concentration 1 mg/ml (1o, 2o), 100 µg/ml (Amphotericin B)
Procedure: as §6, §7, §8

[11] = system: Rhizopus arrhizus (syn. R. oryzae) JMRC:SF:05857; assay: spore inhibition test; type: cell-based; conditions: 48 h; start concentration 1 mg/ml (1o, 2o), 100 µg/ml (Amphotericin B)
Procedure: as §6, §7, §8

[12] = system: P. falciparum (strain 3D7); assay: 72 h 3H-hypoxanthine incorporation assay, asexual blood stages; type: cell-based, Plasmodium falciparum; conditions: 72 h 3H-hypoxanthine incorporation, asexual blood stages; read-out: Antiplasmodial activity IC50 Pf (3D7)
HUVEC = assay: antiproliferative activity on HUVEC cells; type: cell-based; conditions: 72 h
Procedure: (§9) Compounds were tested for their antiproliferative activity on HUVEC and K-562 cells and for cytotoxicity on HeLa cells using standard protocols. K-562 (DSM ACC 10), HUVEC (ATCC CRL-1730), and HeLa (DSM ACC 57) cells were cultured as described previously. To assay the antiproliferative and cytotoxic effect, procedures were carried out as described before. In brief, for each experiment with K-562 and HeLa ∼10,000 cells were seeded per well of the 96-well microplates. For the cytotoxicity assay, the HeLa cells were preincubated for 48 h without the test substances. Cells were incubated for 72 h at 37 °C in a humidified atmosphere and 5% CO2. Suspension cultures of K-562 in microplates were analysed by an electronic cell analyzer system CASY 1 (SCHÄRFE, Reutlingen, Germany). The monolayer of the HUVEC and HeLa cells were fixed by glutaraldehyde (MERCK) and stained with a 0.05% solution of methylene blue (SERVA). After gently washing, the stain was eluted by 0.2 ml of 0.33 N HCl in the wells. The optical densities were measured at 660 nm in a microplate reader. The calculations of the different values of GI50 and CC50 were performed with the software Magellan (TECAN).

K-562 = assay: antiproliferative activity on K-562 cells; type: cell-based; conditions: 72 h
Procedure: as §9

HeLa = assay: cytotoxicity on HeLa cells; type: cell-based; conditions: 72 h
Procedure: as §9

[13] = system: P. berghei asexual stages; assay: ex vivo drug assay (luciferase), asexual stages; type: cell-based; conditions: Plasmodium berghei; 24 h incubation, n=3; read-out: IC50 against P. berghei ex vivo
Procedure: Plates frozen at −80 °C were thawed at 37 °C. The cells were lysed at room temperature in 10 μl 1x luciferin lysis buffer (Luciferase Cell Culture Lysis 5 × reagent, Promega), and 100 μl luciferase assay substrate was added to each well (Luciferase Assay System, Promega). Luciferase activity was measured on a luminescence plate reader (Mithras LB940 luminometer, Berthold Technologies). The mean of the luciferase activity was calculated for each technical triplicate and normalized as follows: (Lucx−LucRBC)/(Lucsolvent−LucRBC) with Lucx and Lucsolvent=mean luciferase activity for parasites incubated with compound x and with solvent (DMSO for 1o and PBS for MB), respectively, and LucRBC=mean luciferase activity of non-infected red blood cells (background). IC50 values were calculated using Prism (GraphPad, log(inhibitor) versus normalized response—variable slope) in three independent experiments for the P. falciparum gametocyte assay and five for the P. berghei ex vivo drug assay.
The animal experiments described in this part were performed at the Institut de Biologie Moléculaire et Cellulaire (Strasbourg, France), using facilities and protocols adhering to national regulations of laboratory animal welfare in France. […] Parasitaemia was monitored via FACS analysis (FACSCalibur, BD Bioscience). […]

parasitaemia = system: parasitaemia; set-up: method as in Baragana et al Nature, 2015,522,315; conditions: at 0.57 mg/kg; ref Baragana et al Nature, 2015,522,315; cited from earlier work

For `C[C@@H]1[C@H](O)[C@@H](C)/C=C/C=C/C=C/C=C/C=C/C=C/C=C/[C@H](O[C@@H]2O[C@H](C)[C@@H](O)[C@H](N)[C@@H]2O)C[C@@H]2O[C@](O)(C[C@@H](O)C[C@@H](O)[C@H](O)CC[C@@H](O)C[C@@H](O)CC(=O)O[C@H]1C)C[C@H](O)[C@H]2C(=O)O` [Amphotericin B, amphotericin B, reference compound], the zone of inhibition at 10 µg/mL [1] was 21 mm, the “inhibition zone diameter, Penicillium notatum (P1)” value [2] was 19p and the “inhibition zone diameter, Sporobolo. salmonicolor (H4)” value [3] was 18p. The “antifungal profile, 1st value = microscopic visualization-based observation, Alternaria alternata” value [4] was 0.78, the “antifungal profile, 2nd value = optical density-based observation, Alternaria alternata” value [4] was 0.1 and the “antifungal profile, 1st value = microscopic visualization-based observation, Arthroderma benhamiae” value [5] was 3.12. For the same compound, the “antifungal profile, 2nd value = optical density-based observation, Arthroderma benhamiae” value [5] was 0.2, the “antifungal profile, 1st value = microscopic visualization-based observation, Aspergillus fumigatus” value [6] was 3.12 and the “antifungal profile, 2nd value = optical density-based observation, Aspergillus fumigatus” value [6] was 0.4. For the same compound, the “antifungal profile, 1st value = microscopic visualization-based observation, Aspergillus terreus” value [7] was 50, the “antifungal profile, 2nd value = optical density-based observation, Aspergillus terreus” value [7] was 0.2 and the “antifungal profile, 1st value = microscopic visualization-based observation, Candida albicans” value [8] was 0.4. For the same compound, the “antifungal profile, 2nd value = optical density-based observation, Candida albicans” value [8] was 0.2, the “antifungal profile, 1st value = microscopic visualization-based observation, Lichtheimia corymbifera” value [9] was under 0.05 and the “antifungal profile, 2nd value = optical density-based observation, Lichtheimia corymbifera” value [9] was under 0.05. For the same compound, the “antifungal profile, 1st value = microscopic visualization-based observation, Penicillium chrysogenum” value [10] was 100, the “antifungal profile, 2nd value = optical density-based observation, Penicillium chrysogenum” value [10] was 1.56 and the “antifungal profile, 1st value = microscopic visualization-based observation, Rhizopus arrhizus” value [11] was 25. The “antifungal profile, 2nd value = optical density-based observation, Rhizopus arrhizus” value [11] was 1.56.

Compound `CC(C)CCCC(C)C1CCC2C3CCC4CC(O)C(NCc5ccccc5O)CC4(C)C3CCC12C` (centres unmarked) [13c] has an IC50 [12] of 0.465 µM, a GI50 (HUVEC) of 23.7 µM and a GI50 (K-562) of 17.7 µM. For the same compound, the CC50 (HeLa) was 85.3 µM.

With `CC(C)CCCC(C)C1CCC2C3CCC4CC(O)C(NCc5ccccc5O)CC4(C)C3CCC12C` (centres unmarked) [14c] the IC50 [12] was 0.208 µM, the GI50 (HUVEC) was 6.7 µM and the GI50 (K-562) was 8.2 µM. It also gave a CC50 (HeLa) of 21.8 µM.

Compound `CN(C)c1ccc2nc3ccc(=[N+](C)C)cc-3sc2c1` [methylene blue, reference compound] has an IC50 [13] of 0.0026 ± 0.0012 µM.

In the case of `O=C(NCCN1CCCC1)c1cc(-c2ccc(CN3CCOCC3)cc2)nc2ccc(F)cc12` [DDD107498], the reduction in parasitaemia (parasitaemia) is given as 90%.
